# Tests used:
# Bcl-2 = assay: Western blot of Bcl-2 in Skmel-28 cells treated with CoQ10 building block components; type: cell-based
# Description: (§1) Skmel-28 melanoma cells were cultured in DMEM/F12 supplemented with 5% Fetal Bovine Serum (FBS) and 1× final concentration of Antibiotics. The cells were grown to 85% confluency and treated with building block components for 3, 6, 12 and 24 hours. The cells were then pelleted and a Western blot analysis was performed.
# (§2) In the Western Blot Analysis, the cells were pelleted in cold PBS, lysed, and the protein levels were quantified using a BCA protein assay. The whole cell lysate was loaded in a 4% loading 12% running Tris-HCl gel. The proteins were then transferred to a nitrocellulose paper then blocked with a 5% milk Tris-buffered solution for 1 hour. The proteins were then exposed to primary antibodies (Bcl-2 and Caspase-3) overnight. The nitrocellulose paper was then exposed to Pico Chemilluminescent for 5 min and the protein expression was recorded. After exposure, actin was quantified using the same method. Using ImageJ the levels of protein expression were quantified. A t-Test was used to analyze for statistical significance.
# [1] = test system: neonatal fibroblast cells; assay: Cell proliferation assay (coulter counter); type: cell-based; details: HB 500 nM, 5 μM, 25 μM; benzoquinone 25, 50, 100 μM; 24 hours
# Description: A cell proliferation assay was also performed on neonatal fibroblast cells. The concentrations of HB tested were 500 nM, 5 μM, and 25 μM. HB was also tested in combination with benzoquinone at a concentrations of 25 μM, 50 μM, and 100 μM. Melanoma cells were seeded at 40 k cells per well and were treated for 24 hours. The cells were trypsinized and quantified using a coulter counter.
# Melanoma cells = assay: Cell proliferation assay (live cell count) of building block combinations; type: cell-based
# Description: This set of experiments used a cell proliferation assay to assess the effect of combining different building block molecules on cell proliferation.
# The first study examined the effect of combining 4-Hydroxy-Benzoate with Benzoquinone. Cells were incubated for 48 hours, after which a cell count was performed for the live cells. Each test group was compared to the control, and each combination groups were compared to Benzoquinone control. The compounds were statistically analyzed for the addition of Benzoquinone.
# Additional studies were performed testing additional molar ratios. For the first test 4-Hydroxybenzoic were tested at concentrations of 500 nM, 1 μM, and 50 μM. These concentrations were tested in combination with 2,3-Dimethoxy-5-methyl-p-benzoquinone (Benzo). The concentration of Benzo tested were 25 μM, 50 μM, and 100 μM. Melanoma cells were grown to 80% confluency and seeded in 6 well plates at a concentration of 40K cells per well. The cells were treated with CoQ10, 4-Hydroxybenzoate, Benzo, and a combination of 4-Hydroxybenzoate/Benzo.
# A T-test was performed with p<0.05 as statistically significant.
# Caspase-3 = assay: Western blot of Caspase-3 in Skmel-28 cells treated with CoQ10 building block components; type: cell-based
# Description: as §1, §2
# HDFa cells = assay: SeaHorse XF analyzer OCR and ECAR; type: cell-based, human
# Source text: Environmental influencers (e.g., MIMs or Epi-shifters) may also be identified by changes in cellular energetics. One example of the measurement of cellular energetics are the real-time measures of the consumption of molecular oxygen and/or the change in pH of the media of a cell culture. For example, the ability of a potential epi-shifter to modulate the metabolic state of a cell may be analyzed using, for example, the XF24 Analyzer (Seahorse, Inc.). This technology allows for real time detection of oxygen and pH changes in a monolayer of cells in order to evaluate the bioenergetics of a cell microenvironment. The XF24 Analyzer measures and compares the rates of oxygen consumption (OCR), which is a measure of aerobic metabolism, and extracellular acidification (ECAR), which is a measure of glycolysis, both key indicators of cellular energetics.
# (SeaHorse Biosciences Inc, North Billerica, Mass.).
# In this experiment, the OCR and extracellular acidification rate (ECAR) in normal cells lines were obtained in the presence and absence of CoQ10 to determine baseline values. It was observed that in its native nutrient environment, the basal OCR rates in normal cells lines are different, and are usually a function of the physiological roles of the cells in the body.
# FIGS. 29 and 30 describe the OCR in HDFa and HASMC cells grown in physiologically normal glucose (about 4.6 mM) and high glucose (hyperglycemic) conditions.
# Table 53, below, describes the ECAR values (mpH/min) in HDFa cells in the presence or absence of CoQ10 under normoxic and hypoxic conditions at 5.5 mM and 22 mM glucose.
# [2] = 500 nM, 1 μM, 25 μM and 50 μM, all time points
smiles,measurement,setting,value
N[C@@H](Cc1ccc(O)cc1)C(=O)O [L-Tyrosine],Bcl-2 expression,"Bcl-2; 500 μM and 5 μM, 24 hours",statistically significant decrease
"O=C(O)c1ccc(O)cc1 [4-Hydroxybenzoate, 4-hydroxy-benzoate]",reduction in fibroblast cells,[1],did not show a significant reduction
same,cell number compared to the control,Melanoma cells; 48 hours,significant decrease in cell number
same,cell proliferation,"Melanoma cells; HB 500 nM, 1 μM, 50 μM, p<0.05",significant decrease in cell proliferation
CC(=O)SCCNC(=O)CCNC(=O)[C@H](O)C(C)(C)COP(=O)(O)OP(=O)(O)OC[C@H]1O[C@@H](n2cnc3c(N)ncnc32)[C@H](O)[C@@H]1OP(=O)(O)O [Acetyl-CoA],Bcl-2 expression,Bcl-2; [2],no significant observed reduction
same,Caspase-3 expression,Caspase-3; [2],no significant observed
N[C@H](Cc1ccc(O)cc1)C(=O)O [D-Tyrosine],Caspase-3 expression,"Caspase-3; 5 μM, 12 hour",increase
"COc1cc(C(O)C(=O)O)ccc1O (stereo not drawn) [VMA, 3-methoxy-4-hydroxymandelate]","apoptotic effect (Bcl-2, Caspase-3)","Bcl-2; 100 nM, 250 nM, 500 nM, 1 μM, 25 μM, 50 μM and 100 μM",no statistically significant apoptotic effect
"C[C@@](O)(CCO)CC(=O)O [Mevalonic Acid, mevalonic acid]",Bcl-2 expression,Bcl-2; [2],no significant reduction
same,Caspase-3 expression,Caspase-3; [2],no significant
COC1=C(OC)C(=O)C(C/C=C(\C)CC/C=C(\C)CC/C=C(\C)CC/C=C(\C)CC/C=C(\C)CC/C=C(\C)CC/C=C(\C)CC/C=C(\C)CC/C=C(\C)CCC=C(C)C)=C(C)C1=O [compound 31510],ECAR,"HDFa cells; 50 μM, Hypoxia (5.5 mM)",5 mpH/min
same,ECAR,"HDFa cells; 50 μM, Hypoxia (22 mM)",6 mpH/min
same,ECAR,"HDFa cells; 50 μM, Normoxia (5.5 mM)",6 mpH/min
same,ECAR,"HDFa cells; 50 μM, Normoxia (22 mM)",5 mpH/min
same,ECAR,"HDFa cells; 100 μM, Hypoxia (5.5 mM)",5 mpH/min
same,ECAR,"HDFa cells; 100 μM, Hypoxia (22 mM)",8 mpH/min
same,ECAR,"HDFa cells; 100 μM, Normoxia (5.5 mM)",6 mpH/min
same,ECAR,"HDFa cells; 100 μM, Normoxia (22 mM)",5 mpH/min

# Reference: patent US9205064B2, “Methods for the diagnosis of oncological disorders using epimetabolic shifters, multidimensional intracellular molecules, or environmental influencers” (Berg LLC, priority 2009, dated 2015)
